Measurements as given in PMC12055039 (Organic & biomolecular chemistry, 2024).
Like-named read-outs stand apart in the source and are kept apart here.

Assays:
[1] = tested on: T. brucei; assay: Antiparasitic screening against T. brucei; type: cell-based; details: read-out: T. brucei EC50; mean ± standard error, 3 biological replicates
[2] = tested on: P. falciparum 3D7; assay: Antiparasitic screening against P. falciparum 3D7; type: cell-based; details: read-out: P. falciparum 3D7 EC50; mean ± standard error, 3 biological replicates
[3] = tested on: L. amazonensis; assay: Antiparasitic screening against L. amazonensis; type: cell-based; details: read-out: L. amazonensis EC50; mean ± standard error, 3 biological replicates
[4] = tested on: L. amazonensis; details: read-out: L. amazonensis EC50; 6/5-spiroindimicins; ref 4b; cited from earlier work
[5] = tested on: T. brucei; details: read-out: EC50 (T. brucei); Phase III candidate for trypanosomiasis; cited from earlier work
[6] = Cytotoxicity against HepG2 cells; details: human

Molecule | EC50 [1] | EC50 [2] | EC50 [3] | EC50 [4] | EC50 [5] | CC50 [6]
COC(=O)c1[nH]cc2c1[C@]1(CN(C)c3ccc(Cl)cc31)c1[nH]c3ccc(Cl)cc3c1-2 (racemic) [Compound 2, spiroindimicin B] | 3 ± 0.23 µM | 3 ± 0.2 µM | 8 ± 0.49 µM | – | – | –
COC(=O)c1[nH]cc2c1[C@]1(CNc3ccc(Cl)cc31)c1[nH]c3ccc(Cl)cc3c1-2 (racemic) [Compound 3, spiroindimicin C] | 13 ± 0.98 µM | 7.1 ± 0.58 µM | > 10 µM | – | – | –
COC(=O)c1[nH]c(C(=O)OC)c2c1-c1c([nH]c3ccc(Cl)cc13)[C@@]21CN(C)c2ccc(Cl)cc21 (racemic) [Compound 4, spiroindimicin D] | 3.4 ± 0.21 µM | 5.6 ± 0.22 µM | 7.7 ± 0.23 µM | – | – | –
COC(=O)c1[nH]cc2c1[C@@]1(CN(C)c3ccc(Cl)cc31)c1[nH]c3ccccc3c1-2 (racemic) [Compound 5, spiroindimicin E] | 4.4 ± 0.32 µM | 4.8 ± 0.51 µM | 9.3 ± 1.7 µM | – | – | –
COC(=O)c1[nH]cc2c1[C@@]1(CN(C)c3ccccc31)c1[nH]c3ccc(Cl)cc3c1-2 (racemic) [Compound 6, spiroindimicin F] | 4 ± 0.2 µM | 9 ± 0.97 µM | 9.9 ± 1.2 µM | – | – | –
COC(=O)c1[nH]c(C(=O)OC)c2c1-c1c[nH]c3ccc(Cl)c(c13)[C@@]21C=Nc2ccc(Cl)cc21 [Compound 1, spiroindimicin A] | – | – | – | 1.3 µM | – | –
CC1(C)OB(O)c2cc(NC(=O)c3ccc(F)cc3C(F)(F)F)ccc21 [acoziborole] | – | – | – | – | 0.6 µM | –
C[C@H]1CCC/C=C/[C@@H]2C[C@H](O)C[C@H]2[C@H](O)/C=C/C(=O)O1 [brefeldin A] | – | – | – | – | – | 0.064 ± 0.0045 µM
N-PMB spiroindimicin C [Compound 74] | 1.2 ± 0.03 µM | 3.7 ± 0.35 µM | > 10 µM | – | – | –
spiroindimicin G [Compound 7] | 0.65 ± 0.14 µM | 7.6 ± 0.47 µM | 8.1 ± 0.5 µM | – | – | –
